Measured values taken from the kinase profiling compilation of Christmann-Franck et al. (2016).

target: EPHA8 (human) (UniProt P29322); experiment: radiometric filter-binding kinase assay, Kinase HotSpot; details: compound 0.5 µM; ATP 10 µM

Row | SMILES | residual activity [%]
1 | CN[C@@H]1C[C@H]2O[C@@](C)([C@@H]1OC)n1c3ccccc3c3c4c(c5c6ccccc6n2c5c31)C(=O)NC4 | 25.7
2 | O=c1c(-c2ccc(F)cc2)c(-c2ccncc2)[nH]n1-c1ccc(Cl)cc1 | 94.4
3 | CCCCc1c(-c2ccc(O)cc2)[nH]c2nccnc12 | 97.4
4 | O=S(=O)(NCCNC/C=C/c1ccc(Br)cc1)c1cccc2cnccc12 | 118
5 | Nc1ncnc2c1cnn2-c1ccccc1 | 90.5

target: CSNK2A2 (human) (UniProt P19784); experiment: as above; details: compound 0.5 µM; ATP 10 µM

Row | SMILES | residual activity [%]
6 | CCCCc1c(-c2ccc(O)cc2)[nH]c2nccnc12 | 94.7
7 | O=S(=O)(NCCNC/C=C/c1ccc(Br)cc1)c1cccc2cnccc12 | 86.6

target: MAPK3 (human) (UniProt P27361); experiment: as above; details: compound 0.5 µM; ATP 10 µM

Row | SMILES | residual activity [%]
8 | O=c1c(-c2ccc(F)cc2)c(-c2ccncc2)[nH]n1-c1ccc(Cl)cc1 | 103
9 | CCCCc1c(-c2ccc(O)cc2)[nH]c2nccnc12 | 101
10 | O=S(=O)(NCCNC/C=C/c1ccc(Br)cc1)c1cccc2cnccc12 | 84.8
11 | Nc1ncnc2c1cnn2-c1ccccc1 | 90.1

target: DAPK3 (human) (UniProt O43293); experiment: as above; details: compound 0.5 µM; ATP 10 µM

Row | SMILES | residual activity [%]
12 | CN[C@@H]1C[C@H]2O[C@@](C)([C@@H]1OC)n1c3ccccc3c3c4c(c5c6ccccc6n2c5c31)C(=O)NC4 | 1.91
13 | O=c1c(-c2ccc(F)cc2)c(-c2ccncc2)[nH]n1-c1ccc(Cl)cc1 | 94.7
14 | CCCCc1c(-c2ccc(O)cc2)[nH]c2nccnc12 | 94.9
15 | O=S(=O)(NCCNC/C=C/c1ccc(Br)cc1)c1cccc2cnccc12 | 97.4
16 | Nc1ncnc2c1cnn2-c1ccccc1 | 103

target: MAPK12 (human) (UniProt P53778); experiment: as above; details: compound 0.5 µM; ATP 10 µM

Row | SMILES | residual activity [%]
17 | O=c1c(-c2ccc(F)cc2)c(-c2ccncc2)[nH]n1-c1ccc(Cl)cc1 | 85.2
18 | Nc1ncnc2c1cnn2-c1ccccc1 | 90.6

target: MAP3K3 (human) (UniProt Q99759); experiment: as above; details: compound 0.5 µM; ATP 10 µM
Sequence (Q99759 whole entry, looked up): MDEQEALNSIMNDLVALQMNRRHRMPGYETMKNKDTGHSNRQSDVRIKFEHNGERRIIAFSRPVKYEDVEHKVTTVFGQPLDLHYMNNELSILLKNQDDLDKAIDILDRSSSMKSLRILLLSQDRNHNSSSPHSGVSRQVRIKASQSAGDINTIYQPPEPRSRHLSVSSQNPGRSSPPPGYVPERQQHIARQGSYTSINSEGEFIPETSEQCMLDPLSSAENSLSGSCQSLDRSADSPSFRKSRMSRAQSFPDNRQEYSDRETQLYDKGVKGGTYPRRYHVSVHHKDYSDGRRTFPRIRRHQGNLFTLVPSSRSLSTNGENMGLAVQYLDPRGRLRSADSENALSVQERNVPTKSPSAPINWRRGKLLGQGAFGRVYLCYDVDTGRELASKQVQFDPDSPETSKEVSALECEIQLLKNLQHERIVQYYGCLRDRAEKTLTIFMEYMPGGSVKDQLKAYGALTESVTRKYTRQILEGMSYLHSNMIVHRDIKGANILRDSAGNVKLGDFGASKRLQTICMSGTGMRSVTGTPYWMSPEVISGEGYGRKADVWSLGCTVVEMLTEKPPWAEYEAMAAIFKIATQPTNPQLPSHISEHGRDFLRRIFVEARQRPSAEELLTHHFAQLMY

Row | SMILES | residual activity [%]
19 | O=c1c(-c2ccc(F)cc2)c(-c2ccncc2)[nH]n1-c1ccc(Cl)cc1 | 96.2
20 | CCCCc1c(-c2ccc(O)cc2)[nH]c2nccnc12 | 127
21 | O=S(=O)(NCCNC/C=C/c1ccc(Br)cc1)c1cccc2cnccc12 | 85.4
22 | Nc1ncnc2c1cnn2-c1ccccc1 | 95.5

target: MAPK11 (human) (UniProt Q15759); experiment: as above; details: compound 0.5 µM; ATP 10 µM
Sequence (Q15759 whole entry, looked up): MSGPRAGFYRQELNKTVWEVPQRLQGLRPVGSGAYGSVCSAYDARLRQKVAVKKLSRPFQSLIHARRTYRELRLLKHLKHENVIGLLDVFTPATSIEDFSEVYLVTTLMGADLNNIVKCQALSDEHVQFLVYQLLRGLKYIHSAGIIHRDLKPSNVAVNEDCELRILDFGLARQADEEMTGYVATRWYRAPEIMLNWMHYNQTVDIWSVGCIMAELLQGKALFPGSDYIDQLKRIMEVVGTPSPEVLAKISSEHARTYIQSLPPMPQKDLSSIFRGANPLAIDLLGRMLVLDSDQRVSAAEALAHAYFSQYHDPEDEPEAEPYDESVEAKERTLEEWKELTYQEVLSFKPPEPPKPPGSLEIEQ

Row | SMILES | residual activity [%]
23 | O=c1c(-c2ccc(F)cc2)c(-c2ccncc2)[nH]n1-c1ccc(Cl)cc1 | 55.9
24 | CCCCc1c(-c2ccc(O)cc2)[nH]c2nccnc12 | 103
25 | O=S(=O)(NCCNC/C=C/c1ccc(Br)cc1)c1cccc2cnccc12 | 87.2
26 | Nc1ncnc2c1cnn2-c1ccccc1 | 99.9

target: STK24 (human) (UniProt Q9Y6E0); experiment: as above; details: compound 0.5 µM; ATP 10 µM

Row | SMILES | residual activity [%]
27 | O=c1c(-c2ccc(F)cc2)c(-c2ccncc2)[nH]n1-c1ccc(Cl)cc1 | 111
28 | CCCCc1c(-c2ccc(O)cc2)[nH]c2nccnc12 | 83.6
29 | O=S(=O)(NCCNC/C=C/c1ccc(Br)cc1)c1cccc2cnccc12 | 72
30 | Nc1ncnc2c1cnn2-c1ccccc1 | 96.3

target: AKT3 (human) (UniProt Q9Y243); experiment: as above; details: compound 0.5 µM; ATP 10 µM

Row | SMILES | residual activity [%]
31 | CN[C@@H]1C[C@H]2O[C@@](C)([C@@H]1OC)n1c3ccccc3c3c4c(c5c6ccccc6n2c5c31)C(=O)NC4 | 2.97
32 | O=c1c(-c2ccc(F)cc2)c(-c2ccncc2)[nH]n1-c1ccc(Cl)cc1 | 94.3
33 | CCCCc1c(-c2ccc(O)cc2)[nH]c2nccnc12 | 95.8
34 | O=S(=O)(NCCNC/C=C/c1ccc(Br)cc1)c1cccc2cnccc12 | 69
35 | Nc1ncnc2c1cnn2-c1ccccc1 | 102

target: GRK6 (human) (UniProt P43250); experiment: as above; details: compound 0.5 µM; ATP 10 µM
Sequence (P43250 whole entry, looked up): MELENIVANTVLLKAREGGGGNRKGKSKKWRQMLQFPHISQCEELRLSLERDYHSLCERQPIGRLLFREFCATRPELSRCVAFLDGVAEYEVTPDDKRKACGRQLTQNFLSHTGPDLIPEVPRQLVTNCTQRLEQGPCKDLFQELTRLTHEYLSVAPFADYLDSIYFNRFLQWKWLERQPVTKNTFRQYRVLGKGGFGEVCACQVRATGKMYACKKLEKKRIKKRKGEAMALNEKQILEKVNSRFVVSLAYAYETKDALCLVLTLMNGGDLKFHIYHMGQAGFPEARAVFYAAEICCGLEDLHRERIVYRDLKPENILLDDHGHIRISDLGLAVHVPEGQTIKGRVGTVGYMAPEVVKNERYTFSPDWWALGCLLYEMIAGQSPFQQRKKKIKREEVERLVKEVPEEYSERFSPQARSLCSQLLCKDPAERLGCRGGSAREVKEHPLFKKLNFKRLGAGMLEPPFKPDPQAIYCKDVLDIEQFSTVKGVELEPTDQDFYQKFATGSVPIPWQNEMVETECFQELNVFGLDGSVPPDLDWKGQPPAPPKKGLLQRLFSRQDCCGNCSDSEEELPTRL

Row | SMILES | residual activity [%]
36 | O=c1c(-c2ccc(F)cc2)c(-c2ccncc2)[nH]n1-c1ccc(Cl)cc1 | 90.1
37 | CCCCc1c(-c2ccc(O)cc2)[nH]c2nccnc12 | 83.5
38 | O=S(=O)(NCCNC/C=C/c1ccc(Br)cc1)c1cccc2cnccc12 | 93.5
39 | Nc1ncnc2c1cnn2-c1ccccc1 | 92.3

target: BLK (human) (UniProt P51451); experiment: as above; details: compound 0.5 µM; ATP 10 µM

Row | SMILES | residual activity [%]
40 | O=c1c(-c2ccc(F)cc2)c(-c2ccncc2)[nH]n1-c1ccc(Cl)cc1 | 91.6
41 | CCCCc1c(-c2ccc(O)cc2)[nH]c2nccnc12 | 85
42 | O=S(=O)(NCCNC/C=C/c1ccc(Br)cc1)c1cccc2cnccc12 | 82.4
43 | Nc1ncnc2c1cnn2-c1ccccc1 | 100

target: CDC42BPA (human) (UniProt Q5VT25); experiment: as above; details: compound 0.5 µM; ATP 10 µM

Row | SMILES | residual activity [%]
44 | O=c1c(-c2ccc(F)cc2)c(-c2ccncc2)[nH]n1-c1ccc(Cl)cc1 | 98
45 | CCCCc1c(-c2ccc(O)cc2)[nH]c2nccnc12 | 99.3
46 | O=S(=O)(NCCNC/C=C/c1ccc(Br)cc1)c1cccc2cnccc12 | 97.5
47 | Nc1ncnc2c1cnn2-c1ccccc1 | 90.2

target: SGK3 (human) (UniProt Q96BR1); experiment: as above; details: compound 0.5 µM; ATP 10 µM
Sequence (Q96BR1 whole entry, looked up): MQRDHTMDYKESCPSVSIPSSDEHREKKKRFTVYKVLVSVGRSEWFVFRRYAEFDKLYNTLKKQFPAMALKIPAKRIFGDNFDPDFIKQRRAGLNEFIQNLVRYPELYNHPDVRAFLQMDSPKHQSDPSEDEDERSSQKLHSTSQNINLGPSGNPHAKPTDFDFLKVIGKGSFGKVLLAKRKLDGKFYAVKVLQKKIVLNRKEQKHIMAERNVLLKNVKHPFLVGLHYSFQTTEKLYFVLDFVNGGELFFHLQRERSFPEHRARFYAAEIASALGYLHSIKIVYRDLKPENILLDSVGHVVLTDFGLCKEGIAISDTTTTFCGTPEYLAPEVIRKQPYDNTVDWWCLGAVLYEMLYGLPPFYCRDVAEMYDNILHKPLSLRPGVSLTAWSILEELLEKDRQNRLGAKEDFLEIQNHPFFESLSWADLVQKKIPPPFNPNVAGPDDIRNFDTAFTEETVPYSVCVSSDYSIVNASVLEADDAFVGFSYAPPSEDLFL

Row | SMILES | residual activity [%]
48 | O=c1c(-c2ccc(F)cc2)c(-c2ccncc2)[nH]n1-c1ccc(Cl)cc1 | 100
49 | CCCCc1c(-c2ccc(O)cc2)[nH]c2nccnc12 | 95.3
50 | O=S(=O)(NCCNC/C=C/c1ccc(Br)cc1)c1cccc2cnccc12 | 78.8
51 | Nc1ncnc2c1cnn2-c1ccccc1 | 92.3

target: PRKD3 (human) (UniProt O94806); experiment: as above; details: compound 0.5 µM; ATP 10 µM

Row | SMILES | residual activity [%]
52 | O=c1c(-c2ccc(F)cc2)c(-c2ccncc2)[nH]n1-c1ccc(Cl)cc1 | 74.5
53 | CCCCc1c(-c2ccc(O)cc2)[nH]c2nccnc12 | 67.4
54 | O=S(=O)(NCCNC/C=C/c1ccc(Br)cc1)c1cccc2cnccc12 | 79.2
55 | Nc1ncnc2c1cnn2-c1ccccc1 | 87.3

target: WEE1 (human) (UniProt P30291); experiment: as above; details: compound 0.5 µM; ATP 10 µM
Sequence (P30291 whole entry, looked up): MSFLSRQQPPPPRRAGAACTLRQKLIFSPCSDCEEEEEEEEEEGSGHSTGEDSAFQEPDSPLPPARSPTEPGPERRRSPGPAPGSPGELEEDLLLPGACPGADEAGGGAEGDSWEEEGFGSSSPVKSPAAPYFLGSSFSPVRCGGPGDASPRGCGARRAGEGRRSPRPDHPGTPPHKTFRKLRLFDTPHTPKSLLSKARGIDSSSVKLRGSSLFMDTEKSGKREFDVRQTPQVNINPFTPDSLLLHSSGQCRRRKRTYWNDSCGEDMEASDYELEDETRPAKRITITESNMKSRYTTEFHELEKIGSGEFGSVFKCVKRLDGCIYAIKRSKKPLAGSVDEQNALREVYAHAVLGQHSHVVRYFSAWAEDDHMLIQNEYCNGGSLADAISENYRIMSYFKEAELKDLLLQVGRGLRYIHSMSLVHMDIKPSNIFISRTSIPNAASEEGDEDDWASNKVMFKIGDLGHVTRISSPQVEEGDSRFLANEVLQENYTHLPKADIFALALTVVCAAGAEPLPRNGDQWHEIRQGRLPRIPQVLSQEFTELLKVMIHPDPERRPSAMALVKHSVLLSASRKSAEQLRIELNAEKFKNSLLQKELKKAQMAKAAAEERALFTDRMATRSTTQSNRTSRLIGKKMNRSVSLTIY

Row | SMILES | residual activity [%]
56 | O=c1c(-c2ccc(F)cc2)c(-c2ccncc2)[nH]n1-c1ccc(Cl)cc1 | 81.6
57 | CCCCc1c(-c2ccc(O)cc2)[nH]c2nccnc12 | 94.6
58 | O=S(=O)(NCCNC/C=C/c1ccc(Br)cc1)c1cccc2cnccc12 | 84.6
59 | Nc1ncnc2c1cnn2-c1ccccc1 | 90

target: DYRK3 (human) (UniProt O43781); experiment: as above; details: compound 0.5 µM; ATP 10 µM

Row | SMILES | residual activity [%]
60 | O=c1c(-c2ccc(F)cc2)c(-c2ccncc2)[nH]n1-c1ccc(Cl)cc1 | 82.7
61 | CCCCc1c(-c2ccc(O)cc2)[nH]c2nccnc12 | 90.9
62 | O=S(=O)(NCCNC/C=C/c1ccc(Br)cc1)c1cccc2cnccc12 | 83.5
63 | Nc1ncnc2c1cnn2-c1ccccc1 | 96.8

target: ADRBK2 (human) (UniProt P35626); experiment: as above; details: compound 0.5 µM; ATP 10 µM

Row | SMILES | residual activity [%]
64 | O=c1c(-c2ccc(F)cc2)c(-c2ccncc2)[nH]n1-c1ccc(Cl)cc1 | 95
65 | CCCCc1c(-c2ccc(O)cc2)[nH]c2nccnc12 | 96.2
66 | O=S(=O)(NCCNC/C=C/c1ccc(Br)cc1)c1cccc2cnccc12 | 101
67 | Nc1ncnc2c1cnn2-c1ccccc1 | 105

target: INSR (human) (UniProt P06213); experiment: as above; details: compound 0.5 µM; ATP 10 µM
Sequence (P06213 whole entry, looked up): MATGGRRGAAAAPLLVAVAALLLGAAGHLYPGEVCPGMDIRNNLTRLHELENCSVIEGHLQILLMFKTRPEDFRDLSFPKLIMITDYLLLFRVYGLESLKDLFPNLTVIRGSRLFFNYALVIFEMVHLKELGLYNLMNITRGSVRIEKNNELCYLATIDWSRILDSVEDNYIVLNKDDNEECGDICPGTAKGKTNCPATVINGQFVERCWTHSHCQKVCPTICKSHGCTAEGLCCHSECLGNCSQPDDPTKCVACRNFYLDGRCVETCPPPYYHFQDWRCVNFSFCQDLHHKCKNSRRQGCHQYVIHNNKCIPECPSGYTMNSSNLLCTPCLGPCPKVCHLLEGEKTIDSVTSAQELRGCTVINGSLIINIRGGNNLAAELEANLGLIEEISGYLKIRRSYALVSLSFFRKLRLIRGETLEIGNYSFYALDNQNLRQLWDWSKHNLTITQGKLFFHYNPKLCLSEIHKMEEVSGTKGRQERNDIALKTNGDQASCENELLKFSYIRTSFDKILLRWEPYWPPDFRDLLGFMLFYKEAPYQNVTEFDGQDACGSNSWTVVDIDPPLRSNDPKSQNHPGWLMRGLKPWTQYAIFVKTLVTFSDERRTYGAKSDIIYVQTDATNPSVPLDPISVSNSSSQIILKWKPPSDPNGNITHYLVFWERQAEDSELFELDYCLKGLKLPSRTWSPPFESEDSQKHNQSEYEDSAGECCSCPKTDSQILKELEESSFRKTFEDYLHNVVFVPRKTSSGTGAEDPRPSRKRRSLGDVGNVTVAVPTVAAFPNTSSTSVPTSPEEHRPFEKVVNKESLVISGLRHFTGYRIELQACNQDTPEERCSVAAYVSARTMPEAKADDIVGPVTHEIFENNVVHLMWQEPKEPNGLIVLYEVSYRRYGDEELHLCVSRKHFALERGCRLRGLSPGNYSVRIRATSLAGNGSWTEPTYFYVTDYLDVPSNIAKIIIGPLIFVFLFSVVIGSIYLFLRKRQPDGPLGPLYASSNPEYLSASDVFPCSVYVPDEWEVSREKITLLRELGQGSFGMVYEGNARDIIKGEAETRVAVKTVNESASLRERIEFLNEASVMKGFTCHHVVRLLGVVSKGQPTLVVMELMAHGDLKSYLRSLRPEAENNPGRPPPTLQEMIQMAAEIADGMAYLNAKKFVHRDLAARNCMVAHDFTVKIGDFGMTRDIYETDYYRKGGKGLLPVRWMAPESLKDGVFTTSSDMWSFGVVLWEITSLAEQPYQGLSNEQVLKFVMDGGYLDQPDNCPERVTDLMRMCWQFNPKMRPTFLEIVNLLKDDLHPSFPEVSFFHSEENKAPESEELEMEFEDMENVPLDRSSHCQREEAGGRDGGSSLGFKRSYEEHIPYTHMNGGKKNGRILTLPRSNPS

Row | SMILES | residual activity [%]
68 | CN[C@@H]1C[C@H]2O[C@@](C)([C@@H]1OC)n1c3ccccc3c3c4c(c5c6ccccc6n2c5c31)C(=O)NC4 | 3.14
69 | O=c1c(-c2ccc(F)cc2)c(-c2ccncc2)[nH]n1-c1ccc(Cl)cc1 | 110
70 | CCCCc1c(-c2ccc(O)cc2)[nH]c2nccnc12 | 99.6
71 | O=S(=O)(NCCNC/C=C/c1ccc(Br)cc1)c1cccc2cnccc12 | 94.3
72 | Nc1ncnc2c1cnn2-c1ccccc1 | 103

target: NEK6 (human) (UniProt Q9HC98); experiment: as above; details: compound 0.5 µM; ATP 10 µM
Sequence (Q9HC98 whole entry, looked up): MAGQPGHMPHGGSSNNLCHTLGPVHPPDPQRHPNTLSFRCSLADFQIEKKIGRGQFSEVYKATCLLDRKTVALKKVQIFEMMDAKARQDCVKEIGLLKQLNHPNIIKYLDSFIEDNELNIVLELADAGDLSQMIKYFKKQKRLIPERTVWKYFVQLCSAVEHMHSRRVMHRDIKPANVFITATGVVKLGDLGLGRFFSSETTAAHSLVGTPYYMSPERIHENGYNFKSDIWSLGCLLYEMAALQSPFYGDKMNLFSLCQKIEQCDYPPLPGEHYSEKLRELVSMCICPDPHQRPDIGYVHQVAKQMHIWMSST

Row | SMILES | residual activity [%]
73 | O=c1c(-c2ccc(F)cc2)c(-c2ccncc2)[nH]n1-c1ccc(Cl)cc1 | 106
74 | CCCCc1c(-c2ccc(O)cc2)[nH]c2nccnc12 | 123
75 | O=S(=O)(NCCNC/C=C/c1ccc(Br)cc1)c1cccc2cnccc12 | 100
76 | Nc1ncnc2c1cnn2-c1ccccc1 | 114

target: CSNK1E (human) (UniProt P49674); experiment: as above; details: compound 0.5 µM; ATP 10 µM
Sequence (P49674 whole entry, looked up): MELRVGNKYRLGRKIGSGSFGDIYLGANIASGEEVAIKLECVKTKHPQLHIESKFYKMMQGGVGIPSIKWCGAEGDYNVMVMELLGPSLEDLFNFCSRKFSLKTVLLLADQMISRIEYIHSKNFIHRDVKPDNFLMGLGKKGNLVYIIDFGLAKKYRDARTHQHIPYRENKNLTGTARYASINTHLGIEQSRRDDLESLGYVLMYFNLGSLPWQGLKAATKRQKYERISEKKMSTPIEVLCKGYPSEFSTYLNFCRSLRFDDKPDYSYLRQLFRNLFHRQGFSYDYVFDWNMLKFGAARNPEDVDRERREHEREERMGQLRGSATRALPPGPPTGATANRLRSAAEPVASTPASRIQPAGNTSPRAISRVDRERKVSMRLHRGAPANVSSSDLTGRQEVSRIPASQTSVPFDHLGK

Row | SMILES | residual activity [%]
77 | O=c1c(-c2ccc(F)cc2)c(-c2ccncc2)[nH]n1-c1ccc(Cl)cc1 | 35
78 | CCCCc1c(-c2ccc(O)cc2)[nH]c2nccnc12 | 102
79 | O=S(=O)(NCCNC/C=C/c1ccc(Br)cc1)c1cccc2cnccc12 | 107
80 | Nc1ncnc2c1cnn2-c1ccccc1 | 81.5

target: ABL2 (human) (UniProt P42684); experiment: as above; details: compound 0.5 µM; ATP 10 µM

Row | SMILES | residual activity [%]
81 | CN[C@@H]1C[C@H]2O[C@@](C)([C@@H]1OC)n1c3ccccc3c3c4c(c5c6ccccc6n2c5c31)C(=O)NC4 | 5.25
82 | O=c1c(-c2ccc(F)cc2)c(-c2ccncc2)[nH]n1-c1ccc(Cl)cc1 | 82.8
83 | CCCCc1c(-c2ccc(O)cc2)[nH]c2nccnc12 | 64.9
84 | O=S(=O)(NCCNC/C=C/c1ccc(Br)cc1)c1cccc2cnccc12 | 84.4
85 | Nc1ncnc2c1cnn2-c1ccccc1 | 93

target: NTRK1 (human) (UniProt P04629); experiment: as above; details: compound 0.5 µM; ATP 10 µM

Row | SMILES | residual activity [%]
86 | O=c1c(-c2ccc(F)cc2)c(-c2ccncc2)[nH]n1-c1ccc(Cl)cc1 | 95.5
